US20240101971A1 (Biogen MA Inc., priority 2021, published 2024)
Where a name gives a salt, the structure may show the parent alone.

What was measured:
suspension HEK293 cells [1] = assay: FACS analysis (propidium iodide) of cell cycle phase of non-transfected suspension HEK293 cultures; format: cell-based; details: for cell synchronization, cell cycle phase by FACS: 24 hours with agent, non-transfected suspension HEK293 cultures, FIG. 2A
Procedure: Cell cycle phase of non-transfected, suspension HEK293 cultures was evaluated using fluorescence activated cell sorting (FACS). Suspension HEK293 cultures were grown in shake flasks for 24 hours with cycle arresting agents (aphidicolin, caffeine, colcemid, colchicine, flavopiridol, hydroxyurea, thymidine, trichostatin A, and vinblastine sulfate) prior to sampling for FACS analysis using propidium iodide (PI), which binds to DNA. Light intensity is indicative of the relative quantity of DNA present in a cell, which is a measure of cell phase. Forward scatter indicates the a size of a cell, while side scatter indicates the a size of intracellular components. Fluorescence of PI was measured using an excitation of 493 nm and emission of 646 nm.

suspension HEK293 cells [2] = assay: rAAV production at manufacturing scale, batch and fed batch bioreactors, suspension HEK293 cells, Payload A; format: cell-based; details: added 0.5 hours post-transfection
Procedure: Scalability of microtubule destabilizing agents (colcemid and colchicine) for production of rAAV was also assessed in batch bioreactors and larger volume fed batch bioreactors for manufacturing scale. Suspension HEK293 cells were transiently transfected with plasmids encoding Payload A flanked by an ITR on either side, at least one Rep polypeptide, at least one Cap polypeptide, and at least one helper polypeptide, colcemid was added at 0.5 hours post-transfection, and cells were cultured in 3-liter batch bioreactors or 250-liter fed bioreactors for a period of time e.g., several days prior to sampling.

SMILES	cell synchronization, cell cycle phase by FACS (suspension HEK293 cells [1])	cell cycle arrest, phase (suspension HEK293 cells [1]; suspension HEK293 cell cultures, FIG. 2B)	rAAV particle titer relative to controls (suspension HEK293 cells [2]; 3-liter batch bioreactors, FIG. 8A)	rAAV particle titer relative to controls (suspension HEK293 cells [2]; 250-liter fed bioreactors, FIG. 8B-8C)
CN[C@H]1CCc2cc(OC)c(OC)c(OC)c2-c2ccc(OC)c(=O)cc21 [colcemid, N-deacetyl-N-methylcolchicine]	G2 phase	G2/M phase	increase	increase
COc1cc2c(c(OC)c1OC)-c1ccc(OC)c(=O)cc1[C@@H](NC(C)=O)CC2 [colchicine, (S)—N-(5,6,7,9-tetrahydro-1,2,3,10-tetramethoxy-9-oxobenzo[a]heptalen-7-yl)acetamide]	G2 phase			
CC[C@]1(O)C[C@H]2C[N@](CCc3c([nH]c4ccccc34)[C@@](C(=O)OC)(c3cc4c(cc3OC)N(C)[C@H]3[C@@](O)(C(=O)OC)[C@H](OC(C)=O)[C@]5(CC)C=CCN6CC[C@]43[C@@H]65)C2)C1 [vinblastine sulfate, vincaleukoblastine]	G2 phase			
